What was measured:
Assay type in all cases: cell-based, human
ABCB2 = ABCB2 mRNA expression (real-time PCR); conditions: A2780/DOX, 10 µM, 48 h, without doxorubicin
ABCF2 [1] = test: ABCF2 mRNA expression (real-time PCR); conditions: A2780/DOX, 10 µM combined with doxorubicin at IC25, 48 h
Description: (§1) The A2780/DOX cell line was seeded into 5 cm Petri dishes with DMEM medium at 1 × 10^5 cell/mL. After 24 h, the dishes were washed with PBS and new DMEM medium supplemented with doxorubicin (at concentration equal to IC25) and samples (10 µM) were added. After 48 h of treatment, the cells were washed with PBS and harvested using the standard trypsin-EDTA procedure. The harvested cells were centrifuged (3200× g; 10 min, 4 °C). The supernatant was discarded, and the pellets were washed with 1.5 mL of cooled PBS (5400× g; 10 min, 4 °C). The washing step was repeated with 1 mL of PBS and the cells were centrifuged again (10,000× g; 3 min, 4 °C). Afterwards, the pellets were resuspended in 1 mL of Trizol (Invitrogen, Carlsbad, CA, USA) and transferred into pre-cooled RNase-free microfuge tubes. The samples were stored at −80 °C.
(§2) A Quant-iT RiboGreen RNA Assay Kit (Invitrogen) was used to determine the RNA concentration using the Infinite M200 plate reader (Tecan, Männedor, Switzerland). The cDNA was prepared from 0.5 µg of total RNA using a RevertAid First Strand Synthesis cDNA Kit (MBI Fermentas, Vilnius, Lithuania). The amplification of the ubiquitin C gene fragment was used to determine the quality of cDNA.
(§3) The experiment was performed using the ViiA7 Real-Time polymerase chain reaction (PCR) System (Life Technologies, Camarillo, CA, USA) with a 384-well block. Before quantitative real-time PCR, the master mix was prepared by mixing 2 µL of 8 × diluted cDNA, 1.75 µL of RNase free water, 1 µL of 5 × HotFIREPol Probe quantitative PCR Mix Plus (Solis Biodyne, Tartu, Estonia) and 0.25 µL of specific 20 × TaqMan Gene Expression Assay (Life Technologies), giving 5 µL of final reaction volume. Cycling parameters were: initial hold at 50 °C for 2 min and denaturation at 95 °C for 10 min, followed by 45 cycles consisting of denaturation at 95 °C for 15 s and annealing/extension at 60 °C for 1 min. After each extension phase, the fluorescence values were acquired. Duplicate samples were used for measurement and samples with a standard deviation of duplicates > 1.0 cycle threshold (Ct) were re-analyzed. The real time PCR procedure was maintained according to MIQE (Minimum information for publication of quantitative real-time PCR experiments) guidelines. The software REST 2009 (Qiagen, Hilden, Germany) served to compare relative transcript levels of genes in the cell line.

ABCA2 = ABCA2 mRNA expression (real-time PCR); conditions: A2780/DOX, 10 µM, 48 h, without doxorubicin
ABCE1 = ABCE1 mRNA expression (real-time PCR); conditions: A2780/DOX, 10 µM, 48 h, without doxorubicin
Description: as §1, §2, §3

ABCG1 = ABCG1 mRNA expression (real-time PCR); conditions: A2780/DOX
Description: as §1, §2, §3

ABC superfamily genes = test: Expression profile of ABC superfamily genes (real-time PCR); conditions: 10 µM, 48 h, without doxorubicin
Description: as §1, with “After 24 h, the dishes were washed with PBS and new DMEM medium supplemented with doxorubicin (at concentration equal to IC25) and samples (10 µM) were added.” left out
(§4) A Quant-iT RiboGreen RNA Assay Kit (Invitrogen) was used to determine the RNA concentration using the Infinite M200 plate reader (Tecan, Männedor, Switzerland). […]
(§5) The experiment was performed using the ViiA7 Real-Time polymerase chain reaction (PCR) System (Life Technologies, Camarillo, CA, USA) with a 384-well block. Before quantitative real-time PCR, the master mix was prepared by mixing 2 µL of 8 × diluted cDNA, 1.75 µL of RNase free water, 1 µL of 5 × HotFIREPol Probe quantitative PCR Mix Plus (Solis Biodyne, Tartu, Estonia) and 0.25 µL of specific 20 × TaqMan Gene Expression Assay (Life Technologies), giving 5 µL of final reaction volume. […] After each extension phase, the fluorescence values were acquired. […]

ABCD4 = ABCD4 mRNA expression (real-time PCR); conditions: A2780/DOX, 10 µM, 48 h, without doxorubicin
Description: as §1, §2
as §5, with “acquired. Duplicate samples were used for measurement and samples with a standard deviation of duplicates > 1.0 cycle threshold (Ct) were re-analyzed. The real time PCR procedure was maintained according to MIQE (Minimum information for publication of quantitative real-time PCR experiments) guidelines.” for “acquired.”

ABCC5 = ABCC5 mRNA expression (real-time PCR); conditions: A2780/DOX, 10 µM, 48 h, without doxorubicin
ABCF2 [2] = test: ABCF2 mRNA expression (real-time PCR); conditions: A2780/DOX, 10 µM, 48 h, without doxorubicin
ABCB9 = ABCB9 mRNA expression (real-time PCR); conditions: A2780/DOX, 10 µM, 48 h, without doxorubicin
ABCB7 = ABCB7 mRNA expression (real-time PCR); conditions: A2780/DOX, 10 µM, 48 h, without doxorubicin
Description: as §1, with “After 24 h, the dishes were washed with PBS and new DMEM medium supplemented with doxorubicin (at concentration equal to IC25) and samples (10 µM) were added.” left out
as §4, §5

ABCA3 = ABCA3 mRNA expression (real-time PCR); conditions: A2780/DOX
Description: as §1, §2, §3

ABCB8 = ABCB8 mRNA expression (real-time PCR); conditions: A2780/DOX, 10 µM, 48 h, without doxorubicin
Description: as §1, with “After 24 h, the dishes were washed with PBS and new DMEM medium supplemented with doxorubicin (at concentration equal to IC25) and samples (10 µM) were added.” left out
as §2
as §5, with “acquired. Duplicate samples were used for measurement and samples with a standard deviation of duplicates > 1.0 cycle threshold (Ct) were re-analyzed. The real time PCR procedure was maintained according to MIQE (Minimum information for publication of quantitative real-time PCR experiments) guidelines.” for “acquired.”

ABCF1 = ABCF1 mRNA expression (real-time PCR); conditions: A2780/DOX
Description: as §1, §2, §3

ABCB1 (P-gp) = test: ABCB1 mRNA expression (real-time PCR); conditions: 10 µM, 48 h, without doxorubicin
Description: as §1, with “After 24 h, the dishes were washed with PBS and new DMEM medium supplemented with doxorubicin (at concentration equal to IC25) and samples (10 µM) were added.” left out
as §2
as §5, with “acquired. Duplicate samples were used for measurement and samples with a standard deviation of duplicates > 1.0 cycle threshold (Ct) were re-analyzed. The real time PCR procedure was maintained according to MIQE (Minimum information for publication of quantitative real-time PCR experiments) guidelines.” for “acquired.”

ABCB3 = ABCB3 mRNA expression (real-time PCR); conditions: A2780/DOX, 10 µM, 48 h, without doxorubicin
Description: as §1, with “After 24 h, the dishes were washed with PBS and new DMEM medium supplemented with doxorubicin (at concentration equal to IC25) and samples (10 µM) were added.” left out
as §4, §5

[3] = 10 µM combined with doxorubicin at IC25, 48 h
[4] = 10 µM, 48 h, without doxorubicin

With `COc1cc([C@H]2Oc3cc([C@H]4Oc5cc(O)cc(O)c5C(=O)[C@@H]4O)ccc3O[C@@H]2CO)ccc1O` [Silybin A, silybin A] the “ABCB2 Expression Difference” value (ABCB2) was 1.141, the “ABCF2 Expression Difference” value (ABCF2 [1]) was 1.242 and the “ABCA2 Expression Difference” value (ABCA2) was 1.078.
With `COc1cc(C2Oc3cc([C@H]4Oc5cc(O)cc(O)c5C(=O)[C@@H]4O)ccc3OC2CO)ccc1O` (stereo partly shown) [Silybin AB, silybin] the “ABCE1 Expression Difference” value (ABCE1) was 1.558, the “ABCG1 Expression Difference” value (ABCG1; [3]) was 1.559 and the “ABCG1 Expression Difference” value (ABCG1; [4]) was 2.416. For the same compound, the “number of ABC genes with increased expression” value (ABC superfamily genes) was 20, the “ABCD4 Expression Difference” value (ABCD4) was 1.882 and the “ABCC5 Expression Difference” value (ABCC5) was 1.819. For the same compound, the “ABCF2 Expression Difference” value (ABCF2 [2]) was 1.326, the “ABCB9 Expression Difference” value (ABCB9) was 2.091 and the “ABCB7 Expression Difference” value (ABCB7) was 1.803. The “ABCF2 Expression Difference” value (ABCF2 [1]) was 1.463, the “ABCA2 Expression Difference” value (ABCA2) was 2.583 and the “ABCA3 Expression Difference” value (ABCA3; [3]) was 1.142. The “ABCB8 Expression Difference” value (ABCB8) was 1.503, the “ABCF1 Expression Difference” value (ABCF1; [3]) was 0.137 and the “ABCF1 Treated vs. Untreated” value (ABCF1; [3]) was “DOWN”.
`COc1cc([C@@H]2Oc3cc([C@H]4Oc5cc(O)cc(O)c5C(=O)[C@@H]4O)ccc3O[C@H]2CO)ccc1O` [Silybin B, silybin B] was tested, and the “ABCE1 Expression Difference” value (ABCE1) was 0.391, the “ABCE1 Treated vs. Untreated” value (ABCE1) was “DOWN” and the “ABCG1 Expression Difference” value (ABCG1; [4]) was 0.303. The “ABCG1 Treated vs. Untreated” value (ABCG1; [4]) was “DOWN”, the “number of ABC genes with altered expression” value (ABC superfamily genes; out of 42 tested) was 24 and the “ABCD4 Expression Difference” value (ABCD4) was 0.370. The “ABCD4 Treated vs. Untreated” value (ABCD4) was “DOWN”, the “ABCC5 Expression Difference” value (ABCC5) was 0.365 and the “ABCC5 Treated vs. Untreated” value (ABCC5) was “DOWN”. The “ABCF2 Expression Difference” value (ABCF2 [2]) was 0.307, the “ABCF2 Treated vs. Untreated” value (ABCF2 [2]) was “DOWN” and the “ABCB9 Expression Difference” value (ABCB9) was 0.392. For the same compound, the “ABCB9 Treated vs. Untreated” value (ABCB9) was “DOWN”, the “downregulation of ABCB1 (P-gp) expression” value (ABCB1 (P-gp)) was 79% and the “ABCB1 Expression Difference” value (ABCB1 (P-gp); A2780/DOX) was 0.208. The “ABCB1 Treated vs. Untreated” value (ABCB1 (P-gp); A2780/DOX) was “DOWN”, the “ABCB3 Expression Difference” value (ABCB3) was 0.365 and the “ABCB3 Treated vs. Untreated” value (ABCB3) was “DOWN”. For the same compound, the “ABCA2 Expression Difference” value (ABCA2) was 0.520, the “ABCA2 Treated vs. Untreated” value (ABCA2) was “DOWN” and the “ABCA3 Expression Difference” value (ABCA3; [3]) was 0.794. For the same compound, the “ABCA3 Treated vs. Untreated” value (ABCA3; [3]) was “DOWN”, the “ABCA3 Expression Difference” value (ABCA3; [4]) was 0.228 and the “ABCA3 Treated vs. Untreated” value (ABCA3; [4]) was “DOWN”. For the same compound, the “ABCB8 Expression Difference” value (ABCB8) was 0.413, the “ABCB8 Treated vs. Untreated” value (ABCB8) was “DOWN” and the “ABCF1 Expression Difference” value (ABCF1; [4]) was 0.260. The “ABCF1 Treated vs. Untreated” value (ABCF1; [4]) was “DOWN”.

Source: publication PMC7278776, “Multidrug Resistance Modulation Activity of Silybin Derivatives and Their Anti-Inflammatory Potential” (Antioxidants, 2020)
